According to the supplement of paper PMC10307832:

How the values were obtained:
Assay in all cases: relative viability (nuclei count vs DMSO), 5 days (fraction); higher = more cells survive
Bemcentinib + Vorinostat = compound: Nc1nc(Nc2ccc3c(c2)CC[C@@H](N2CCCC2)CC3)nn1-c1cc2c(nn1)-c1ccccc1CCC2 [Bemcentinib] + O=C(CCCCCCC(=O)Nc1ccccc1)NO [Vorinostat] (partner 1 µM)
Method in brief: (§1)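 Values are medians from duplicate plates. Each reflects relative viability, defined as the nuclei count of treated wells over that of vehicle wells. Lung cancer cell lines in 1536-well plates were pin-tool dosed one day after seeding with one drug alone or with a fixed anchor-drug dose plus five library-drug doses (not always all listed) in √10 steps, then fixed, stained and imaged at 4× after 5 days.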

Bemcentinib + Crizotinib = compound: Nc1nc(Nc2ccc3c(c2)CC[C@@H](N2CCCC2)CC3)nn1-c1cc2c(nn1)-c1ccccc1CCC2 [Bemcentinib] + C[C@@H](Oc1cc(-c2cnn(C3CCNCC3)c2)cnc1N)c1c(Cl)ccc(F)c1Cl [Crizotinib] (partner 1 µM)
Method in brief: as §1

[1] = compound: CC1=CC=C(C=C1)C(=O)CN2C3=C(CCCC3)SC2=N [Pifithrin_alpha] + COc1cccc2cc(-c3nc([C@H]4CC[C@H](C(=O)O)CC4)n4ncnc(N)c34)[nH]c12 [OSI-027] (partner 0.5 µM)
Method in brief: as §1

Axitinib + Tozasertib = compound: CNC(=O)c1ccccc1Sc1ccc2c(/C=C/c3ccccn3)n[nH]c2c1 [Axitinib] + Cc1cc(Nc2cc(N3CCN(C)CC3)nc(Sc3ccc(NC(=O)C4CC4)cc3)n2)n[nH]1 [Tozasertib] (partner 0.1 µM)
Method in brief: as §1

| Cell Line | relative viability (Bemcentinib + Vorinostat; first compound 0.04 µM) | relative viability (Bemcentinib + Vorinostat; first compound 0.1265 µM) | relative viability (Bemcentinib + Vorinostat; first compound 0.4 µM) | relative viability (Bemcentinib + Vorinostat; first compound 1.265 µM) | relative viability (Bemcentinib + Vorinostat; first compound 4 µM) | relative viability (Bemcentinib + Crizotinib; first compound 0.04 µM) | relative viability (Bemcentinib + Crizotinib; first compound 0.1265 µM) | relative viability (Bemcentinib + Crizotinib; first compound 0.4 µM) | relative viability (Bemcentinib + Crizotinib; first compound 1.265 µM) | relative viability (Bemcentinib + Crizotinib; first compound 4 µM) | relative viability ([1]; first compound 1 µM) | relative viability ([1]; first compound 3.162 µM) | relative viability ([1]; first compound 10 µM) | relative viability ([1]; first compound 100 µM) | relative viability (Axitinib + Tozasertib; first compound 0.005 µM) | relative viability (Axitinib + Tozasertib; first compound 0.01581 µM) | relative viability (Axitinib + Tozasertib; first compound 0.05 µM) | relative viability (Axitinib + Tozasertib; first compound 0.1581 µM) | relative viability (Axitinib + Tozasertib; first compound 0.5 µM) | relative viability ([1]; first compound 31.62 µM) |
| --- | --- | --- | --- | --- | --- | --- | --- | --- | --- | --- | --- | --- | --- | --- | --- | --- | --- | --- | --- | --- |
| NCI-H441 | 0.691 | 0.824 | 0.735 | 0.87 | 0.756 | 0.66 | 0.704 | 0.757 | 0.665 | 0.779 | 0.524 | 0.662 | 0.614 | 0.542 | 0.746 | 0.585 | 0.658 | 0.789 | 0.796 | – |
| LC-2-ad | 0.705 | 0.805 | 0.73 | 0.726 | 0.737 | 0.467 | 0.482 | 0.416 | 0.411 | 0.452 | – | 0.84 | 0.797 | 0.675 | 0.425 | 0.479 | 0.396 | 0.425 | 0.53 | – |
| NCI-H838 | 0.746 | 0.799 | 0.718 | 0.82 | 0.719 | 0.805 | 0.958 | 0.906 | 0.893 | 0.869 | 0.381 | 0.35 | 0.349 | 0.258 | 0.305 | 0.263 | 0.265 | 0.323 | 0.323 | 0.263 |
| NCI-H1944 | 0.521 | 0.611 | 0.608 | 0.527 | 0.561 | 1.13 | 1.11 | 1.17 | 1.18 | 1.1 | 0.346 | 0.362 | 0.351 | 0.293 | 0.238 | 0.258 | 0.264 | 0.263 | 0.297 | 0.252 |
| CAL-12T | 0.907 | 1 | 0.824 | 0.762 | 0.831 | 0.394 | 0.767 | 0.679 | 0.62 | 0.525 | 0.455 | 0.592 | 0.457 | 0.444 | 0.417 | 0.363 | 0.34 | 0.365 | 0.394 | – |
| EPLC-272H | 0.441 | 0.458 | 0.459 | 0.405 | 0.58 | – | 0.96 | 1.05 | 0.86 | 1.01 | 0.227 | 0.307 | 0.245 | 0.256 | 0.247 | 0.223 | 0.204 | 0.23 | 0.242 | 0.244 |
| NCI-H2170 | 0.732 | 0.855 | 0.992 | 0.745 | 0.897 | 1.36 | 1.36 | 1.21 | 1.38 | 1.31 | 0.729 | 0.673 | 0.7 | 0.558 | 0.72 | 0.63 | 0.768 | 0.774 | 0.838 | 0.556 |
| NCI-H1915 | 0.508 | 0.518 | 0.547 | 0.55 | 0.491 | 0.957 | 1.03 | 0.911 | 0.96 | 0.989 | 0.567 | 0.628 | – | 0.584 | 0.458 | 0.491 | 0.443 | 0.464 | 0.655 | – |
| NCI-H2087 | 0.567 | 0.836 | 1.1 | 0.665 | 0.678 | 0.827 | 0.982 | 0.942 | 0.999 | 1.05 | 0.417 | 0.499 | 0.483 | 0.605 | 0.247 | 0.294 | 0.282 | 0.321 | 0.357 | – |
| LCLC-97TM1 | 0.727 | 0.703 | 0.702 | 0.633 | 0.829 | 0.267 | 0.475 | – | 0.376 | 0.259 | 0.706 | 0.689 | 0.631 | 0.6 | 0.251 | 0.271 | 0.276 | 0.415 | 0.393 | 0.252 |
| NCI-H1734 | 0.788 | 0.773 | 0.853 | 0.833 | 0.828 | 0.686 | 0.691 | 0.669 | 0.667 | 0.698 | 0.58 | 0.633 | 0.585 | 0.491 | 0.278 | 0.268 | 0.274 | 0.241 | 0.25 | 0.482 |
| EKVX | 0.509 | 0.815 | 0.726 | 0.701 | 0.79 | 0.973 | 0.981 | 1.06 | 1.03 | 0.986 | 0.668 | – | 0.569 | 0.604 | 0.41 | 0.492 | 0.358 | 0.347 | 0.341 | 0.734 |
| 201T | 0.962 | 0.981 | 1.04 | 0.938 | 1.06 | 1.05 | 1.03 | 0.983 | 1.05 | 1.07 | 0.453 | 0.542 | 0.524 | 0.467 | 1 | 0.896 | 0.907 | 0.929 | 1.19 | 0.439 |
| NCI-H2085 | 0.762 | 0.822 | 0.778 | 0.795 | 0.764 | 0.836 | 0.802 | 0.753 | 0.803 | 0.919 | – | 0.781 | 0.473 | 0.398 | 0.652 | 0.771 | 0.807 | 0.827 | 0.913 | 0.505 |
| NCI-H2405 | 0.991 | 1.07 | 1.1 | 1.08 | 1.06 | 0.826 | 0.922 | 0.87 | 0.853 | 0.914 | 0.494 | 0.639 | 0.583 | 0.579 | 0.773 | 0.795 | 0.853 | 0.785 | 1 | 0.58 |
| NCI-H1650 | 0.515 | 0.713 | 0.753 | 0.576 | 0.553 | 0.887 | 0.998 | 1.05 | 0.973 | 0.814 | – | 0.532 | 0.43 | 0.411 | 0.448 | 0.382 | 0.49 | 0.411 | 0.482 | 0.494 |
| EMC-BAC-2 | 0.38 | 0.413 | 0.537 | 0.358 | 0.4 | 0.788 | 0.801 | 0.776 | 0.836 | 0.831 | 0.329 | 0.386 | 0.358 | 0.353 | 0.301 | 0.299 | 0.272 | 0.391 | 0.412 | – |
